Target: Neuronal acetylcholine receptor subunit alpha-7 (Homo sapiens, UniProt P36544)
Assay: Positive allosteric modulation of human alpha7 nAChR expressed in HEK cells assessed as potentiation of acetylcholine induced peak current amplitude preincubated for 58 secs followed by acetylcholine stimulation for 1 secs by automated patch-clamp electrophysiology
Type: cell-based

Neuronal acetylcholine receptor subunit alpha-7, sequence (P36544 whole entry): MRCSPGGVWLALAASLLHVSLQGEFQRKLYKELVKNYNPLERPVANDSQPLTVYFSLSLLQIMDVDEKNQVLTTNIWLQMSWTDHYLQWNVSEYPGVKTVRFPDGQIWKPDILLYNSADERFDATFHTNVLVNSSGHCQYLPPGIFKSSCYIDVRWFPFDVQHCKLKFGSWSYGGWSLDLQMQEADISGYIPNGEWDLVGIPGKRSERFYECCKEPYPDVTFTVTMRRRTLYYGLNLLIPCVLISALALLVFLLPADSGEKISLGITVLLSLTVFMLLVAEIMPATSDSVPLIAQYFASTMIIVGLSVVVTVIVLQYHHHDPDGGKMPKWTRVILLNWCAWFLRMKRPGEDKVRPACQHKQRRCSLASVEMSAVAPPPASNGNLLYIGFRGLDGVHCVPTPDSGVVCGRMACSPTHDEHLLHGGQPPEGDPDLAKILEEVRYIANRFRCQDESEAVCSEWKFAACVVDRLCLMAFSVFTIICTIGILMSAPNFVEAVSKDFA

SMILES	EC50 [nM]
CCOc1ccc([C@H](COC)NC(=O)C2CC23CCc2cc(F)ccc23)cc1 (some centres undefined)	590
O=C(NC1(c2ccc(F)cc2)COC1)C1CC12CCc1ccccc12 (centres undefined)	3200
CCOc1ccc([C@H](CF)NC(=O)C2CC23COc2ccc(F)cc23)cn1 (some centres undefined)	790
O=C(NC1(c2ccc(F)cc2)COC1)C1CC12CCc1ccc(F)cc12 (centres undefined)	820
O=C(N[C@@H](CO)C1CCCCC1)C1CC12COc1ccccc12 (some centres undefined)	630
CCOc1ccc([C@H](COC)NC(=O)C2CC23CCCc2ccccc23)cc1 (some centres undefined)	740
CCOc1ccc([C@@H](NC(=O)C2CC23COc2ccc(F)cc23)C(F)F)cn1 (some centres undefined)	3000
O=C(N[C@@H](CO)C1CCCCC1)C1CC12COc1ccc(F)cc12 (some centres undefined)	770
CCOc1ccc([C@H](COC)NC(=O)C2CC23CCc2ccc(F)cc23)cc1 (some centres undefined)	700

Source: ChEMBL document CHEMBL5357009, “Positive Allosteric Modulators of alpha7 Nicotinic Acetylcholine Receptor for the Treatment of Several Central Nervous System Diseases” (ACS Med Chem Lett, 2024)
